IC50 data for 38 molecules are collected here from patent US9446044B2, “DYRK1 inhibitors and uses thereof” (DIAXONHIT, priority 2011, dated 2016).

Broadly, the IC50 is the midpoint of a concentration-inhibition curve.

The target in one assay is DYRK1A (Homo sapiens (Human), UniProt Q13627). Put plainly: DYRK1A kinase assay (HotSpot, Reaction Biology). Type of assay: biochemical. The conditions noted are these: purified recombinant kinase, 10 μM ATP, room temperature 120 min.
The next assay deals with DYRK1B (Homo sapiens (Human), UniProt Q9Y463). Put plainly: DYRK1B kinase assay (HotSpot, Reaction Biology). The assay is classed as biochemical.
Setting [1] is: purified recombinant kinase, 10 μM ATP, room temperature 120 min.

Like-named read-outs stand apart in the source and are kept apart here.

Sequence of DYRK1B (Q9Y463 whole entry): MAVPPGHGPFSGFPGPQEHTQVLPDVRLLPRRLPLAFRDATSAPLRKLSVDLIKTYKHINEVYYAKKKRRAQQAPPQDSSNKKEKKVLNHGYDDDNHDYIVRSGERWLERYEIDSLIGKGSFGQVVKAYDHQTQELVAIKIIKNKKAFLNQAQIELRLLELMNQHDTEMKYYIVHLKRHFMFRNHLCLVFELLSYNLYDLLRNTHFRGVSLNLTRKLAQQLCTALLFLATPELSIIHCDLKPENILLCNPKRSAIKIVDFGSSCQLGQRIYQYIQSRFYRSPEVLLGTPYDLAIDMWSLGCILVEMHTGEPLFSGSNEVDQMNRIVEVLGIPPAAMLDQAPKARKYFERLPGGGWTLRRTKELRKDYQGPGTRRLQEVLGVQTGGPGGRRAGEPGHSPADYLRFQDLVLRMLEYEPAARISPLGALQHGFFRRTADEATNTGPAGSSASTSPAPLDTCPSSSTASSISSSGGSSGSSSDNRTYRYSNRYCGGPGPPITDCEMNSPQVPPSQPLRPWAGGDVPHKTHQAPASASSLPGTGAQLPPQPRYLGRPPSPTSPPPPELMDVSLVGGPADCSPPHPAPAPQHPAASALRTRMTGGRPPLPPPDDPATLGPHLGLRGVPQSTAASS

On to `CN(C)C(=N)c1nc2ccc3ncnc(Nc4ccc(F)c(Cl)c4)c3c2s1` [Compound 7, 9-(3-Chloro-4-fluorophenylamino)-N,N-dimethylthiazolo[5,4-f]quinazoline-2-carboximidamide], for which the IC50 at DYRK1A lay in the range of 1000 to 10000 nM.

As to `CN(C)C(=N)c1nc2ccc3ncnc(Nc4ccc(Br)cc4F)c3c2s1` [Compound 14], the half-inhibitory concentration (IC50) on DYRK1A came to 147 nM.

As for `N=C(NCc1ccc(F)cc1)c1nc2ccc3ncnc(Nc4ccc(Br)cc4F)c3c2s1` [Compound 16, 9-(4-Bromo-2-fluorophenylamino)-N-(4-fluorobenzyl)thiazolo[5,4-f]quinazoline-2-carboximidamide], at DYRK1A, the IC50 lay in the range of 1000 to 10000 nM. Same read-out and setting: the figure for `N=C(NCc1ccncc1)c1nc2ccc3ncnc(Nc4ccc(Br)cc4F)c3c2s1` [Compound 19, 9-(4-Bromo-2-fluorophenylamino)-N-(pyridin-4-ylmethyl)thiazolo[5,4-f]quinazoline-2-carboximidamide] is 1000 to 10000 nM; for `CCN(CC)CCNC(=N)c1nc2ccc3ncnc(Nc4ccc(OC)cc4)c3c2s1` [Compound 23, N-(2-(Diethylamino)ethyl)-9-(4-methoxyphenylamino)thiazolo[5,4-f]quinazoline-2-carboximidamide] it is […]. Still for that read-out and setting: the result for `COc1ccc(Nc2ncnc3ccc4nc(C(=N)NCc5ccccc5)sc4c23)cc1` [Compound 25, N-benzyl-9-(4-methoxyphenylamino)thiazolo[5,4-f]quinazoline-2-carboximidamide] reads […].

For the molecule `N=C(NCCN1CCOCC1)c1nc2ccc3ncnc(Nc4ccc5c(c4)OCO5)c3c2s1` [Compound 29, 9-(Benzo[d][1,3]dioxol-5-ylamino)-N-(2-morpholinoethyl)thiazolo[5,4-f]quinazoline-2-carboximidamide], the IC50 on DYRK1A lay within 1000 to 10000 nM. As to `N=C(NCCN1CCCCC1)c1nc2ccc3ncnc(Nc4ccc5c(c4)OCO5)c3c2s1` [Compound 30, 9-(Benzo[d][1,3]dioxol-5-ylamino)-N-(2-(piperidin-1-yl)ethyl)thiazolo[5,4-f]quinazoline-2-carboximidamide], on DYRK1A, the half-maximal inhibitory concentration (IC50) was 1000 to 10000 nM. Same read-out and setting: the result for `N=C(NCCN1CCCC1)c1nc2ccc3ncnc(Nc4ccc5c(c4)OCO5)c3c2s1` [Compound 31, 9-(Benzo[d][1,3]dioxol-5-ylamino)-N-(2-(pyrrolidin-1-yl)ethyl)thiazolo[5,4-f]quinazoline-2-carboximidamide] reads […]; that for `CN(C)CCNC(=N)c1nc2ccc3ncnc(Nc4ccc5c(c4)OCO5)c3c2s1` [Compound 33, 9-(Benzo[d][1,3]dioxol-5-ylamino)-N-(2-(dimethylamino)ethyl)thiazolo[5,4-f]quinazoline-2-carboximidamide], 431 nM. On the same count and under the same terms, the result for `CCN(CC)CCNC(=N)c1nc2ccc3ncnc(Nc4ccc5c(c4)OCO5)c3c2s1` [Compound 34, 9-(Benzo[d][1,3]dioxol-5-ylamino)-N-(2-(diethylamino)ethyl)thiazolo[5,4-f]quinazoline-2-carboximidamide] reads 1000 to 10000 nM; that for `NC(=O)c1nc2ccc3ncnc(Nc4ccc(Br)cc4F)c3c2s1` [Compound 36, 9-(4-Bromo-2-fluorophenylamino)thiazolo[5,4-f]quinazoline-2-carboxamide], 194 nM. Take `COc1ccc(Nc2ncnc3ccc4nc(C5=NCCO5)sc4c23)cc1` [Compound 42, 2-(4,5-dihydrooxazol-2-yl)-N-(4-methoxyphenyl)thiazolo[5,4-f]quinazolin-9-amine]: the half-maximal inhibitory concentration (IC50) on DYRK1B (setting [1]) worked out at 18700 nM. Consider `COC(=N)c1nc2ccc3ncnc(Nc4ccc(Br)cc4F)c3c2s1` [Compound 44, Methyl 9-(4-bromo-2-fluorophenylamino)thiazolo[5,4-f]quinazoline-2-carbimidate], for which the IC50 on DYRK1A is 3.6 nM; at DYRK1B it was 6.55 nM. In the case of `COC(=N)c1nc2ccc3ncnc(Nc4ccc(OC)cc4)c3c2s1` [Compound 45, Methyl 9-(4-methoxyphenylamino)thiazolo[5,4-f]quinazoline-2-carbimidate], the half-inhibitory concentration (IC50) was found to be 13.1 nM on DYRK1A and 19.2 nM on DYRK1B (setting [1]). In the same order, the values of `COC(=N)c1nc2ccc3ncnc(Nc4cc(Br)c5c(c4)OCO5)c3c2s1` [Compound 47, Methyl 9-(7-bromobenzo[d][1,3]dioxol-5-ylamino)thiazolo[5,4-f]quinazoline-2-carbimidate] are 2.76 nM and 3.66 nM.

`COC(=N)c1nc2ccc3ncnc(Nc4ccc5c(c4)OCO5)c3c2s1` [Compound 48, Methyl 9-(benzo[d][1,3]dioxol-5-ylamino)thiazolo[5,4-f]quinazoline-2-carbimidate]: the IC50 on DYRK1B (setting [1]) was 4.2 nM. As to `COC(=N)c1nc2ccc3ncnc(Nc4ccc5c(c4)OCCO5)c3c2s1` [Compound 49, Methyl 9-(2,3-dihydrobenzo[b][1,4]dioxin-6-ylamino)thiazolo[5,4-f]quinazoline-2-carbimidate], the IC50 at DYRK1A amounted to 8 nM.

As for `COC(=N)c1nc2ccc3ncnc(Nc4ccc(OC)c(OC)c4)c3c2s1` [Compound 51, Methyl 9-(3,4-dimethoxyphenylamino)thiazolo[5,4-f]quinazoline-2-carbimidate], the IC50 at DYRK1B (setting [1]) came to 161 nM. With `COC(=N)c1nc2ccc3ncnc(Nc4ccc(Cl)cc4)c3c2s1` [Compound 56, Methyl 9-(4-chlorophenylamino)thiazolo[5,4-f]quinazoline-2-carbimidate], the IC50 at DYRK1A was determined as 1.13 nM; at DYRK1B (setting [1]), 4.74 nM. On to `COC(=N)c1nc2ccc3ncnc(Nc4ccc(Cl)c(Cl)c4)c3c2s1` [Compound 57, Methyl 9-(3,4-dichlorophenylamino)thiazolo[5,4-f]quinazoline-2-carbimidate], for which the IC50 at DYRK1A amounted to 66.8 nM. As for `C#Cc1cccc(Nc2ncnc3ccc4nc(C(=N)OC)sc4c23)c1` [Compound 58, Methyl 9-(3-ethynylphenylamino)thiazolo[5,4-f]quinazoline-2-carbimidate], the figures for the IC50 on DYRK1A and on DYRK1B (setting [1]) were 40.8 nM and 46.3 nM, respectively. Take `COC(=N)c1nc2ccc3ncnc(Nc4ccc(O)c([N+](=O)[O-])c4)c3c2s1` [Compound 60, Methyl 9-(4-hydroxy-3-nitrophenylamino)thiazolo[5,4-f]quinazoline-2-carbimidate]: the values for the IC50 on DYRK1A and at DYRK1B (setting [1]) were 4.91 nM and 5.68 nM, respectively. For `COC(=N)c1nc2ccc3ncnc(Nc4cc(OC)c(OC)c(OC)c4)c3c2s1` [Compound 61, Methyl 9-(3,4,5-trimethoxyphenylamino)thiazolo[5,4-f]quinazoline-2-carbimidate], the IC50 at DYRK1A turned out to be 436 nM; at DYRK1B (setting [1]) it was 486 nM. With `COC(=N)c1nc2ccc3ncnc(Nc4ccc(OC)cc4OC)c3c2s1` [Compound 62, Methyl 9-(2,4-dimethoxyphenylamino)thiazolo[5,4-f]quinazoline-2-carbimidate], the 50% inhibitory concentration (IC50) stood at 9.53 nM at DYRK1A and 11.1 nM at DYRK1B (setting [1]). With `COC(=N)c1nc2ccc3ncnc(Nc4cc(OC)cc(OC)c4)c3c2s1` [Compound 63, Methyl 9-(3,5-dimethoxyphenylamino)thiazolo[5,4-f]quinazoline-2-carbimidate], the half-maximal inhibitory concentration (IC50) on DYRK1A was determined as 299 nM. Turning to `COC(=N)c1nc2ccc3ncnc(Nc4ccccc4)c3c2s1` [Compound 64, Methyl 9-(phenylamino)thiazolo[5,4-f]quinazoline-2-carbimidate], the values for the IC50 at DYRK1A and at DYRK1B (setting [1]) were 1.81 nM and 3.48 nM, respectively. In the same order, the values of `COC(=N)c1nc2ccc3ncnc(Nc4ccc(C)cc4)c3c2s1` [Compound 65, Methyl 9-(p-tolylamino)thiazolo[5,4-f]quinazoline-2-carbimidate] are 0.98 nM and 2.83 nM. In the same order, the values of `COC(=N)c1nc2ccc3ncnc(Nc4ccc(F)cc4)c3c2s1` [Compound 66, Methyl 9-(4-fluorophenylamino)thiazolo[5,4-f]quinazoline-2-carbimidate] are 6.06 nM and 9.64 nM. In the same order, the values of `COC(=N)c1nc2ccc3ncnc(Nc4cccc(C#N)c4)c3c2s1` [Compound 67, Methyl 9-(3-cyanophenylamino)thiazolo[5,4-f]quinazoline-2-carbimidate] are 42.7 nM and 72 nM.

Consider `COC(=N)c1nc2ccc3ncnc(Nc4ccc(F)cc4Br)c3c2s1` [Compound 68, Methyl 9-(2-bromo-4-fluorophenylamino)thiazolo[5,4-f]quinazoline-2-carbimidate], for which the IC50 was found to be 0.16 nM on DYRK1A and 0.24 nM at DYRK1B (setting [1]).

For `COC(=N)c1nc2ccc3ncnc(Nc4ccc(C#N)cc4)c3c2s1` [Compound 70, Methyl 9-(4-cyanophenylamino)thiazolo[5,4-f]quinazoline-2-carbimidate], the figures for the half-inhibitory concentration (IC50) on DYRK1A and on DYRK1B (setting [1]) were 3.89 nM and 7.69 nM, respectively.

Turning to `COC(=N)c1nc2ccc3ncnc(Nc4ccc(Cl)cc4Cl)c3c2s1` [Compound 72, Methyl 9-(2,4-dichlorophenylamino)thiazolo[5,4-f]quinazoline-2-carbimidate], the IC50 was 0.22 nM on DYRK1A and 0.28 nM at DYRK1B (setting [1]). In the case of `COC(=N)c1nc2ccc3ncnc(Nc4ccc(OC)c([N+](=O)[O-])c4)c3c2s1` [Compound 73, Methyl 9-(4-methoxy-3-nitrophenylamino)thiazolo[5,4-f]quinazoline-2-carbimidate], the 50% inhibitory concentration (IC50) at DYRK1A amounted to 124 nM.

For `COC(=N)c1nc2ccc3ncnc(Nc4ccc(C(C)(C)C)cc4)c3c2s1` [Compound 74, Methyl 9-(4-tert-butylphenylamino)thiazolo[5,4-f]quinazoline-2-carbimidate], the 50% inhibitory concentration (IC50) on DYRK1A was 39 nM; on DYRK1B (setting [1]), 93.8 nM. In the same order, the values of `COC(=N)c1nc2ccc3ncnc(Nc4cccc(Cl)c4)c3c2s1` [Compound 75, Methyl 9-(3-chlorophenylamino)thiazolo[5,4-f]quinazoline-2-carbimidate] are 13.6 nM and 18.8 nM. In the same order, the values of `COC(=N)c1nc2ccc3ncnc(Nc4ccc(N(C)C)cc4)c3c2s1` [Compound 76, Methyl 9-(4-(dimethylamino)phenylamino)thiazolo[5,4-f]quinazoline-2-carbimidate] are 35.6 nM and 64.3 nM. In the same order, the values of `COC(=N)c1nc2ccc3ncnc(Nc4ccc(N5CCCC5)cc4)c3c2s1` [Compound 77, Methyl 9-(4-(pyrrolidin-1-yl)phenylamino)thiazolo[5,4-f]quinazoline-2-carbimidate] are 54.8 nM and 186 nM.
